Assay results from patent publication US20100216777A1, “AMINOPYRAZINE ANALOGS FOR TREATING GLAUCOMA AND OTHER RHO KINASE-MEDIATED DISEASES AND CONDITIONS” (ALCON, INC., priority 2004, published 2010).
Where a name gives a salt, the structure may show the parent alone.

Each compound was assayed against T1, Human Recombinant ROCK-II Enzyme (ROKα/ROCK-II, aa 11-552) (Homo sapiens, UniProt O75116) (assay: ROCK-II inhibition, fluorescence polarization assay (IMAP ROCK II kit)). Conditions: substrate 200 nM, ATP 10 μM, 60 min at 23° C., read-out: Enzyme Inhibition Constants (IC50) against Human Recombinant ROCK-II Enzyme.
T1 construct: (ROKα/ROCK-II, (aa 11-552), human active); purchased Upstate Biotechnology Co., Lake Placid, N.Y. 14-451
T1 sequence (O75116 11-552): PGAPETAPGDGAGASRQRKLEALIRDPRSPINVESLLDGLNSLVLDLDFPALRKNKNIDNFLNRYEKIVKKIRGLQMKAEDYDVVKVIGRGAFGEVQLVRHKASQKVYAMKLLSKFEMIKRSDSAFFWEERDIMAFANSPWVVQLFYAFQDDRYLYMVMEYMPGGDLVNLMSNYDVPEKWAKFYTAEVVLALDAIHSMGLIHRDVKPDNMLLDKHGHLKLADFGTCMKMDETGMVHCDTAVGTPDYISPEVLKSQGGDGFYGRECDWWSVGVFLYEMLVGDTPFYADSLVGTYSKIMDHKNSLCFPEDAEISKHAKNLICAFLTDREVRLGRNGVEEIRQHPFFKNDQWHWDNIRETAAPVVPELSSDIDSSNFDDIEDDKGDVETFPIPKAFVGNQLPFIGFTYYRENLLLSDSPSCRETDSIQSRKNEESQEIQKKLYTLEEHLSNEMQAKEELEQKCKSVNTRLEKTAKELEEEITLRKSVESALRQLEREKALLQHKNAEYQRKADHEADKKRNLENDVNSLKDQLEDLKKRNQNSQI
Type: biochemical
Method: The ability of certain compounds of Formula (I) to inhibit rho kinase was evaluated by means of in vitro assays. Human recombinant Rho kinase (ROKα/ROCK-II, (aa 11-552), human active, catalog #14-451, Upstate Biotechnology Co., Lake Placid, N.Y.), MgCl2/ATP cocktail, and enzyme substrate (Upstate) are used.
The fluorescence polarization assays are performed using a Biomek 2000 Robotic Workstation (Beckman Instruments, Palo Alto, Calif.) in a 96-well plate format. The assays are performed utilizing the IMAP ROCK II kit (Molecular Devices, Sunnyvale, Calif.) as follows. Substrate and ATP concentrations used are 200 nM and 10 μM, respectively, while the enzyme concentration is 3.96×10^−3 units per well. The substrate, enzyme, and ATP dilutions are made with the reaction buffer provided by the vendor. Test compounds are diluted in 10:10 DMSO-ethanol (vol/vol). For the actual assays, the various components are added into black, clear bottom, 96-well plates (Costar, Corning, N.Y.) in a final volume of 20 μl per well. After the enzyme reaction (60 min at 23° C.), 60 μl of the binding solution (IMAP kit, provided by vendor) is added per well and incubated for an additional 30 minutes in the dark at 23° C. Fluorescence polarization of the reaction mixtures is then measured on the Analyst™ HT instrument (Molecular Devices, Sunnyvale, Calif.).
The data generated are then analyzed using a non-linear, iterative, sigmoidal-fit computer program purchased from IDBS (Emeryville, Calif.) and as previously described (Sharif et al., J. Pharmacol. Exp. Ther. 286:1094-1102, 1998; Sharif et al., J. Pharmacol. Expt. Ther. 293:321-328, 2000; Sharif et al., J. Ocular Pharmacol. Ther. 18:141-162, 2002a; Sharif et al., J. Pharmac. Pharmacol. 54:539-547, 2002b) to generate the inhibition constants for the test compounds.
`Cc1n[nH]c2ccc(-c3cnc(N4CCCC4)c(N4CCCNCC4)n3)cc12` [Example 43, 5-(6-(1,4-Diazepan-1-yl)-5-(pyrrolidin-1-yl)pyrazin-2-yl)-3-methyl-1H-indazole hydrochloride] showed an IC50 of 0.11 nM. `CN1CCCN(c2nc(-c3ccncc3)cnc2N2CCCCC2)CC1` [Example 48, 1-Methyl-4-(3-(piperidin-1-yl)-6-(pyridin-4-yl)pyrazin-2-yl)-1,4-diazepane hydrochloride] showed an IC50 of 0.56 nM. Work on `Nc1ncc(-c2ccncc2)nc1N1CCC(O)CC1` [Example 12, 1-(3-Amino-6-(pyridin-4-yl)pyrazin-2-yl)piperidin-4-ol] yielded an IC50 of 6.9 nM. For `COCCN(C)c1ncc(-c2ccncc2)nc1N1CCCN(C)CC1` [Example 29, N-(2-Methoxyethyl)-N-methyl-3-(4-methyl-1,4-diazepan-1-yl)-5-(pyridin-4-yl)pyrazin-2-amine hydrochloride], the IC50 was 45 nM. `Nc1ncc(-c2ccncc2)nc1OC1CCCNC1` (stereo not shown) [Example 23, 3-(Piperidin-3-yloxy)-5-(pyridin-4-yl)pyrazin-2-amine] showed an IC50 of 0.68 nM. Compound `c1cc(-c2cnc(N3CCCC3)c(N3CCCNCC3)n2)ccn1` [Example 40, 1-(6-(Pyridin-4-yl)-3-(pyrrolidin-1-yl)pyrazin-2-yl)-1,4-diazepane hydrochloride] has an IC50 of 0.33 nM. For `Cc1cnccc1-c1cnc(N)c(N2CCCN(C)CC2)n1` [Example 2, 3-(4-Methyl-1,4-diazepan-1-yl)-5-(3-methylpyridin-4-yl)pyrazin-2-amine hydrochloride], the IC50 was 58 nM. Work on `CN(C)CCCOc1nc(-c2ccncc2)cnc1N(C)C` [Example 36, 3-(3-(Dimethylamino)propoxy)-N,N-dimethyl-5-(pyridin-4-yl)pyrazin-2-amine hydrochloride] yielded an IC50 of 11 nM. In the case of `CN1CCCN(c2nc(-c3ccnc4[nH]ncc34)cnc2N(C)C)CC1` [Example 33, N,N-Dimethyl-3-(4-methyl-1,4-diazepan-1-yl)-5-(1H-pyrazolo[3,4-b]pyridin-4-yl)pyrazin-2-amine dihydrochloride], the IC50 is reported as 0.54 nM. Work on `CN1CCCC(Nc2nc(-c3ccncc3)cnc2N)C1` (stereo not shown) [Example 15, N,N-(1-Methylpiperidin-3-yl)-6-(pyridin-4-yl)pyrazine-2,3-diamine] yielded an IC50 of 5.5 nM. `CN1CCC(Nc2nc(-c3ccncc3)cnc2N)CC1` [Example 14, N,N-(1-Methylpiperidin-4-yl)-6-(pyridin-4-yl)pyrazine-2,3-diamine] was tested, and the IC50 was 3.5 nM. Work on `CN1CCCN(c2nc(-c3ccncc3)cnc2NCCO)CC1` [Example 28, 2-(3-(4-Methyl-1,4-diazepan-1-yl)-5-(pyridin-4-yl)pyrazin-2-ylamino)ethanol hydrochloride] yielded an IC50 of 3 nM. `CN1CCCN(c2nc(-c3ccnc4[nH]ccc34)cnc2N)CC1` [Example 4, 3-(4-Methyl-1,4-diazepan-1-yl)-5-(1H-pyrrolo[2,3-b]pyridin-4-yl)pyrazin-2-amine] gave an IC50 of 0.53 nM. With `Nc1ncc(-c2ccncc2)nc1NC1CCNC1` (stereo not shown) [Example 19, 6-(Pyridin-4-yl)-N^2-(pyrrolidin-3-yl)pyrazine-2,3-diamine] the IC50 was 0.064 nM. With `CN1CCC(Oc2nc(-c3ccncc3)cnc2N)CC1` [Example 20, 3-(1-Methylpiperidin-4-yloxy)-5-(pyridin-4-yl)pyrazin-2-amine] the IC50 was 5.6 nM. With `CN1CCCN(c2nc(-c3ccncc3)cnc2N2CCOCC2)CC1` [Example 52, 4-(3-(4-Methyl-1,4-diazepan-1-yl)-5-(pyridin-4-yl)pyrazin-2-yl)morpholine trihydrochloride] the IC50 was 6.3 nM. `Nc1ncc(-c2ccncc2)nc1N1CCN(CCCO)CC1` [Example 24, 3-(4-(3-Amino-6-(pyridin-4-yl)pyrazin-2-yl)piperazin-1-yl)propan-1-ol] gave an IC50 of 1.7 nM. `CN1CCCN(c2nc(-c3ccnc4[nH]ccc34)cnc2N2CCCC2)CC1` [Example 39, 4-(6-(4-Methyl-1,4-diazepan-1-yl)-5-(pyrrolidin-1-yl)pyrazin-2-yl)-1H-pyrrolo[2,3-b]pyridine dihydrochloride] showed an IC50 of 0.16 nM. Work on `Nc1ncc(-c2ccncc2)nc1NC1CCCNC1` (stereo not shown) [Example 17, N,N-(Piperidin-3-yl)-6-(pyridin-4-yl)pyrazine-2,3-diamine] yielded an IC50 of 0.21 nM. Work on `CNc1ncc(-c2ccncc2)nc1N1CCCN(C)CC1` [Example 25, N-Methyl-3-(4-methyl-1,4-diazepan-1-yl)-5-(pyridin-4-yl)pyrazin-2-amine hydrochloride] yielded an IC50 of 2.4 nM. For `Nc1ncc(-c2ccncc2)nc1NC1CCNCC1` [Example 16, N,N-2-(Piperidin-4-yl)-6-(pyridin-4-yl)pyrazine-2,3-diamine], the IC50 was 0.82 nM. With `c1cc(-c2cnc(N3CCCC3)c(OC3CCNCC3)n2)c2cc[nH]c2n1` [Example 47, 4-(6-(Piperidin-4-yloxy)-5-(pyrrolidin-1-yl)pyrazin-2-yl)-1H-pyrrolo[2,3-b]pyridine] the IC50 was 0.054 nM. `CN1CCCN(c2nc(-c3cc[nH]n3)cnc2N)CC1` [Example 3, 3-(4-Methyl-1,4-diazepan-1-yl)-5-(1H-pyrazol-3-yl)pyrazin-2-amine] was tested, and the IC50 was 2.8 nM. With `CN1CCCN(c2nc(-c3ccncc3)cnc2N2CCCC2)CC1` [Example 38, 1-Methyl-4-(6-(pyridin-4-yl)-3-(pyrrolidin-1-yl)pyrazin-2-yl)-1,4-diazepane hydrochloride] the IC50 was 0.33 nM. `CN1CCCN(c2nc(-c3ccnc(N)c3)cnc2N)CC1` [Example 8, 5-(2-Aminopyridin-4-yl)-3-(4-methyl-1,4-diazepan-1-yl)pyrazin-2-amine trihydrochloride] gave an IC50 of 53 nM. For `CN1CCCN(c2nc(-c3ccncc3)cnc2N)CC1` [Example 1, 3-(4-Methyl-1,4-diazepan-1-yl)-5-(pyridin-4-yl)pyrazin-2-amine], the IC50 was 3 nM. With `CN(C)c1ncc(-c2ccnc3[nH]ccc23)nc1N1CCN(CCO)CC1` [Example 31, 2-(4-(3-(Dimethylamino)-6-(1H-pyrrolo[2,3-b]pyridin-4-yl)pyrazin-2-yl)piperazin-1-yl)ethanol] the IC50 was 0.053 nM. `CN(C)c1ncc(-c2ccncc2)nc1N1CCN(CCO)CC1` [Example 30, 2-(4-(3-(Dimethylamino)-6-(pyridin-4-yl)pyrazin-2-yl)piperazin-1-yl)ethanol hydrochloride] gave an IC50 of 0.3 nM. `CN(C)c1ncc(-c2ccncc2)nc1NC1CCCNC1` (stereo not shown) [Example 34, N,N-(Piperidin-3-yl)-6-(pyridin-4-yl)pyrazine-2,3-diamine] gave an IC50 of 3.1 nM. `CN1CCCN(c2nc(-c3ccncc3)cnc2N2CCCCCC2)CC1` [Example 50, 1-(3-(Azepan-1-yl)-6-(pyridin-4-yl)pyrazin-2-yl)-4-methyl-1,4-diazepane hydrochloride] gave an IC50 of 0.02 nM. In the case of `c1cc(-c2cnc(N3CCCCC3)c(NC3CCCNC3)n2)ccn1` (stereo not shown) [Example 49, 3-(Piperidin-1-yl)-N-(piperidin-3-yl)-6-(pyridin-4-yl)pyrazin-2-amine], the IC50 is reported as 0.3 nM. Compound `CN1CCCN(c2nc(-c3cccc4[nH]ncc34)cnc2N)CC1` [Example 5, 5-(1H-indazol-4-yl)-3-(4-methyl-1,4-diazepan-1-yl)pyrazin-2-amine dihydrochloride] has an IC50 of 25 nM. `CCN(CC)c1ncc(-c2ccncc2)nc1N1CCCN(C)CC1` [Example 37, N,N-Diethyl-3-(4-methyl-1,4-diazepan-1-yl)-5-(pyridin-4-yl)pyrazin-2-amine hydrochloride] was tested, and the IC50 was 6.7 nM. Work on `Nc1ncc(-c2ccncc2)nc1N(CCO)CCO` [Example 9, 2,2′-(3-Amino-6-(pyridin-4-yl)pyrazin-2-ylazanediyl)diethanol] yielded an IC50 of 22 nM. Compound `CN1CCCC(Oc2nc(-c3ccncc3)cnc2N)C1` (stereo not shown) [Example 21, 3-(1-Methylpiperidin-3-yloxy)-5-(pyridin-4-yl)pyrazin-2-amine] has an IC50 of 4.2 nM. With `OCCN1CCN(c2nc(-c3ccncc3)cnc2N2CCCC2)CC1` [Example 44] the IC50 was 0.078 nM. `CN1CCCN(c2nc(-c3ccncc3)cnc2N(C)C)CC1` [Example 32, N,N-dimethyl-3-(4-methyl-1,4-diazepan-1-yl)-5-(pyridin-4-yl)pyrazin-2-amine hydrochloride] gave an IC50 of 1.7 nM. `CN1CCCN(c2nc(-c3ccc4[nH]ncc4c3)cnc2N)CC1` [Example 7, 5-(1H-Indazol-5-yl)-3-(4-methyl-1,4-diazepan-1-yl)pyrazin-2-amine dihydrochloride] gave an IC50 of 0.95 nM. `CN1CCC(N(C)c2nc(-c3ccncc3)cnc2N)CC1` [Example 18, N,N-Methyl-N,N-(1-methylpiperidin-4-yl)-6-(pyridin-4-yl)pyrazine-2,3-diamine] gave an IC50 of 9.6 nM. In the case of `CN(C)C1CCN(c2nc(-c3ccncc3)cnc2N)CC1` [Example 13, 3-(4-(Dimethylamino)piperidin-1-yl)-5-(pyridin-4-yl)pyrazin-2-amine], the IC50 is reported as 6.4 nM.
